# ± gives the standard deviation of the averaged measurements.
# Assay: TIMS collisional cross section (CCS, N2) of the lipid ion; higher = larger ion cross section
# Conditions: ionization mode: negative, one isomer drawn
# Procedure: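 Lipid extracts of human plasma (NIST SRM 1950), mouse liver or HeLa cells were separated by nanoflow C18 LC (30 min gradient) and analysed by TIMS-PASEF on a timsTOF Pro. Ion mobility was calibrated with the Agilent tuning mix (negative mode ions) and converted to collisional cross sections (Mason–Schamp, N2).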
# [1] = sample type: Mouse Liver, ion (formula + adduct): [C45H79O13P-H] 1-
# [2] = sample type: Mouse Liver, ion (formula + adduct): [C44H76NO10P-H] 1-
# [3] = sample type: Mouse Liver, ion (formula + adduct): [C44H74NO10P-H] 1-
# 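Further: lipids from MTBE extraction, five replicate injections per sample, 100 ms TIMS ramp spanning 0.6–1.95 Vs/cm², lipid identity assigned from PASEF MS/MS spectra.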
smiles,measurement,setting,value
CCCCC/C=C\C/C=C\CCCCCCCCCC(=O)OC[C@H](COP(=O)(O)OC1[C@H](O)[C@H](O)C(O)[C@H](O)[C@H]1O)OC(=O)CCCCCCCCCCCCCCCCC (stereo partly specified) [PI 20:2_18:0@],TIMS collisional cross section,"sample type: Human plasma, ion (formula + adduct): [C47H87O13P-H] 1-",300.4 Å²
CCCCC/C=C\C/C=C\C/C=C\CCCCCCC(=O)OC[C@H](COP(=O)(O)OC1[C@H](O)[C@H](O)C(O)[C@H](O)[C@H]1O)OC(=O)CCCCCCCCCCCCCCC (stereo partly specified) [PI 20:3@_16:0],TIMS collisional cross section,"sample type: Human plasma, ion (formula + adduct): [C45H81O13P-H] 1-",298.9 Å²
CCCCC/C=C\C/C=C\C/C=C\CCCCCCC(=O)OC[C@H](COP(=O)(O)OC1[C@H](O)[C@H](O)C(O)[C@H](O)[C@H]1O)OC(=O)CCCCCCCCCCCCCCC (stereo partly specified) [PI 20:3_16:0@],TIMS collisional cross section,"sample type: Mouse Liver, ion (formula + adduct): [C45H81O13P-H] 1-",293.1 Å²
CCCCC/C=C\C/C=C\C/C=C\C/C=C\CCCC(=O)OC[C@H](COP(=O)(O)OC1[C@H](O)[C@H](O)C(O)[C@H](O)[C@H]1O)OC(=O)CCCCCCCCCCCCCCC (stereo partly specified) [PI 20:4@_16:0],TIMS collisional cross section,[1],303.5 Å²
CCCCC/C=C\C/C=C\C/C=C\C/C=C\CCCC(=O)OC[C@H](COP(=O)(O)OC1[C@H](O)[C@H](O)C(O)[C@H](O)[C@H]1O)OC(=O)CCCCCCCCCCCCCCC (stereo partly specified) [PI 20:4_16:0],TIMS collisional cross section,"sample type: Human plasma, ion (formula + adduct): [C45H79O13P-H] 1-",291.9 Å²
same,TIMS collisional cross section,[1],291.3 Å²
CC/C=C\C/C=C\C/C=C\C/C=C\C/C=C\CCCC(=O)OC[C@H](COP(=O)(O)OC1[C@H](O)[C@H](O)C(O)[C@H](O)[C@H]1O)OC(=O)CCCCCCCCCCCCCCC (stereo partly specified) [PI 20:5@_16:0],TIMS collisional cross section,"sample type: Mouse Liver, ion (formula + adduct): [C45H77O13P-H] 1-",290.1 ± 1.1 Å²
CC/C=C\C/C=C\C/C=C\C/C=C\C/C=C\CCCC(=O)OC[C@H](COP(=O)(O)OC1[C@H](O)[C@H](O)C(O)[C@H](O)[C@H]1O)OC(=O)CCCCCCCCCCCCCCCCC (stereo partly specified) [PI 20:5_18:0@],TIMS collisional cross section,"sample type: Mouse Liver, ion (formula + adduct): [C47H81O13P-H] 1-",296.4 Å²
CCCCCCCCCCCCCCCC(=O)O[C@H](COC(=O)CCCCCCCCCCC)COP(=O)(O)OC[C@H](N)C(=O)O [PS 12:0@_16:0],TIMS collisional cross section,"sample type: Mouse Liver, ion (formula + adduct): [C34H66NO10P-H] 1-",262.8 Å²
CCCC/C=C\CCCCCCCC(=O)OC[C@H](COP(=O)(O)OC[C@H](N)C(=O)O)OC(=O)CCCCCCCCCCCCCCC [PS 14:1@_16:0],TIMS collisional cross section,"sample type: Human plasma, ion (formula + adduct): [C36H68NO10P-H] 1-",269 Å²
same,TIMS collisional cross section,"sample type: Mouse Liver, ion (formula + adduct): [C36H68NO10P-H] 1-",268.4 Å²
CCCCCCCCCCCCCCCC(=O)OC[C@H](COP(=O)(O)OC[C@H](N)C(=O)O)OC(=O)CCCCCCCCCCCCC [PS 16:0_14:0@],TIMS collisional cross section,"sample type: Human plasma, ion (formula + adduct): [C36H70NO10P-H] 1-",269.6 Å²
CCCCCCCCCCCCCCCCCC(=O)OC[C@H](COP(=O)(O)OC[C@H](N)C(=O)O)OC(=O)CCCCCCCCCCCCCC [PS 18:0_15:0@],TIMS collisional cross section,"sample type: Human plasma, ion (formula + adduct): [C39H76NO10P+OAcO] 1-",293.3 Å²
CC/C=C\C/C=C\C/C=C\C/C=C\C/C=C\C/C=C\CCC(=O)O[C@H](COC(=O)CCCCCCC/C=C\CCCCCCCC)COP(=O)(O)OC[C@H](N)C(=O)O [PS 18:1@_22:6],TIMS collisional cross section,"sample type: Mouse Liver, ion (formula + adduct): [C46H76NO10P-H] 1-",288 Å²
CCCCCCCC/C=C\CCCCCCCC(=O)OC[C@H](COP(=O)(O)OC[C@H](N)C(=O)O)OC(=O)CCCCCCCCCCCCCCCCC [PS 18:1_18:0],TIMS collisional cross section,"sample type: Mouse Liver, ion (formula + adduct): [C42H80NO10P-H] 1-",284.2 Å²
CCCCC/C=C\C/C=C\CCCCCCCC(=O)OC[C@H](COP(=O)(O)OC[C@H](N)C(=O)O)OC(=O)CCCCCCCCCCCCCCC [PS 18:2@_16:0],TIMS collisional cross section,"sample type: Mouse Liver, ion (formula + adduct): [C40H74NO10P-H] 1-",282.6 Å²
CC/C=C\C/C=C\C/C=C\C/C=C\C/C=C\C/C=C\CCC(=O)O[C@H](COC(=O)CCCCCCCCC/C=C\C/C=C\CCCCC)COP(=O)(O)OC[C@H](N)C(=O)O [PS 20:2@_22:6],TIMS collisional cross section,"sample type: Mouse Liver, ion (formula + adduct): [C48H78NO10P-H] 1-",296.6 Å²
CCCCC/C=C\C/C=C\C/C=C\CCCCCCC(=O)OC[C@H](COP(=O)(O)OC[C@H](N)C(=O)O)OC(=O)CCCCCCCCCCCCCCC [PS 20:3@_16:0],TIMS collisional cross section,"sample type: Mouse Liver, ion (formula + adduct): [C42H76NO10P-H] 1-",281.3 Å²
CCCCC/C=C\C/C=C\C/C=C\CCCCCCC(=O)OC[C@H](COP(=O)(O)OC[C@H](N)C(=O)O)OC(=O)CCCCCCCCCCCCCCCCC [PS 20:3_18:0],TIMS collisional cross section,"sample type: Mouse Liver, ion (formula + adduct): [C44H80NO10P-H] 1-",286.4 Å²
CCCCC/C=C\C/C=C\C/C=C\C/C=C\CCCC(=O)OC[C@H](COP(=O)(O)OC[C@H](N)C(=O)O)OC(=O)CCCCCCCCCCCCCCC [PS 20:4_16:0],TIMS collisional cross section,"sample type: Mouse Liver, ion (formula + adduct): [C42H74NO10P-H] 1-",280.1 Å²
CCCCC/C=C\C/C=C\C/C=C\C/C=C\CCCC(=O)OC[C@H](COP(=O)(O)OC[C@H](N)C(=O)O)OC(=O)CCCCCCC/C=C\CCCCCCCC [PS 20:4_18:1],TIMS collisional cross section,[2],284.6 Å²
CCCCC/C=C\C/C=C\C/C=C\C/C=C\CCCC(=O)OC[C@H](COP(=O)(O)OC[C@H](N)C(=O)O)OC(=O)CCCCCCC/C=C\C/C=C\CCCCC [PS 20:4_18:2@],TIMS collisional cross section,[3],286.4 Å²
CCCCC/C=C\C/C=C\C/C=C\C/C=C\CCCC(=O)OC[C@H](COP(=O)(O)OC[C@H](N)C(=O)O)OC(=O)CCC/C=C\C/C=C\C/C=C\C/C=C\CCCCC [PS 20:4_20:4],TIMS collisional cross section,"sample type: Mouse Liver, ion (formula + adduct): [C46H74NO10P-H] 1-",287.4 Å²
CC/C=C\C/C=C\C/C=C\C/C=C\C/C=C\CCCC(=O)OC[C@H](COP(=O)(O)OC[C@H](N)C(=O)O)OC(=O)CCCCCCCCCCCCCCC [PS 20:5_16:0],TIMS collisional cross section,"sample type: Mouse Liver, ion (formula + adduct): [C42H72NO10P-H] 1-",279 Å²
CC/C=C\C/C=C\C/C=C\C/C=C\C/C=C\CCCC(=O)OC[C@H](COP(=O)(O)OC[C@H](N)C(=O)O)OC(=O)CCCCCCCCCCCCCCCCC [PS 20:5_18:0],TIMS collisional cross section,[2],284.6 Å²
CCCCC/C=C\C/C=C\C/C=C\C/C=C\CCCCCC(=O)OC[C@H](COP(=O)(O)OC[C@H](N)C(=O)O)OC(=O)CCCCCCCCCCCCCCC [PS 22:4@_16:0],TIMS collisional cross section,"sample type: Mouse Liver, ion (formula + adduct): [C44H78NO10P-H] 1-",288.7 Å²
CCCCC/C=C\C/C=C\C/C=C\C/C=C\CCCCCC(=O)OC[C@H](COP(=O)(O)OC[C@H](N)C(=O)O)OC(=O)CCCCCCCCCCCCCCCCC [PS 22:4_18:0],TIMS collisional cross section,"sample type: Mouse Liver, ion (formula + adduct): [C46H82NO10P-H] 1-",291.4 Å²
CC/C=C\C/C=C\C/C=C\C/C=C\C/C=C\C/C=C\CCC(=O)OC[C@H](COP(=O)(O)OC[C@H](N)C(=O)O)OC(=O)CCCCCCCCCCCCCCC [PS 22:6_16:0],TIMS collisional cross section,[3],283.5 Å²
CC/C=C\C/C=C\C/C=C\C/C=C\C/C=C\C/C=C\CCC(=O)OC[C@H](COP(=O)(O)OC[C@H](N)C(=O)O)OC(=O)CCCCCCCCCCCCCCCCC [PS 22:6_18:0],TIMS collisional cross section,"sample type: Mouse Liver, ion (formula + adduct): [C46H78NO10P-H] 1-",289.7 Å²
CCCCCCCC/C=C\CCCCCCCC(=O)N[C@@H](COP(=O)([O-])OCC[N+](C)(C)C)[C@H](O)/C=C/CCCCCCCCCCC [SM d16:1_18:1@],TIMS collisional cross section,"sample type: Human plasma, ion (formula + adduct): [C39H77N2O6P+HCOO] 1-",285 Å²
CCCCCCCCCCCCC/C=C/[C@@H](O)[C@H](COP(=O)([O-])OCC[N+](C)(C)C)NC(=O)CCCCCCCCCCCCC [SM d18:1_14:0@],TIMS collisional cross section,"sample type: Human plasma, ion (formula + adduct): [C37H75N2O6P+HCOO] 1-",280.6 Å²
